# Columns and labels:
# [1] = Pharmacokinetics of hPTH (1-34) after IV, SC and coated microprojection array administration; format: in vivo, hairless guinea pig; conditions: for dose absorbed/delivered: AUC relative to IV
# [2] = Plasma PTH after subcutaneous Forteo vs coated microprojection transdermal delivery; format: in vivo, human
# Procedure: (§1) In this example, transdermal delivery of a PTH-based agent using a coated microprojection member was compared to conventional, subcutaneous delivery of teriparatide PTH (Forteo™). A dose-finding study was conducted with […], young females that received two treatments, separated by at least five days, according to randomly assigned sequence of 20 μg subcutaneous delivery of Forteo™ and 30 μg transdermal delivery of a PTH-based agent by coated microprojection. Bioavailability of transdermally delivered PTH was determined in 20 healthy, young females by administering two treatments, separated by at least five day, according to randomly assigned sequence of 40 μg subcutaneous delivery of Forteo™ and 30 μg transdermal delivery of a PTH-based agent by coated microprojection.
# In the dose-finding study, two participants dropped out, eleven subjects participated and eight generated usable data. It was determined that three subjects had measurable PTH plasma levels following subcutaneous injection and eight subjects had measurable PTH plasma levels following transdermal delivery.
# [3] = test system: urinary cAMP; assay: Urinary cAMP excretion after subcutaneous vs transdermal delivery; format: in vivo, human
# Procedure: as §1
# FIG. 12 further reflects a preferred pulsatile concentration profile of the PTH agent, i.e., rapid on-set and rapid off-set after reaching Cmax.
# [4] = Solubility in water; format: physicochemical; conditions: at pH 5
# Source text: Referring now to FIG. 10, there is shown a superposition of the mole ratios for acetic acid and the neutral form of hPTH (1-34). […] At pH 5, negligible amounts of PTH are present as PTH zero net charge (PTH 0). The PTH is also highly soluble in water at concentrations in excess of 20%. During drying and subsequent storage, the free acetic acid will evaporate inherently resulting in formation of the water insoluble PTH 0. Subsequent reconstitution in water will not allow total solubilization of PTH. Accordingly, the use of a low volatility counterion provides a solid soluble formulation of PTH as long as the pH is maintained at least 2.5 pH units, preferably 3 pH units, below the pI of PTH. Preferably, this can be achieved by providing at least about two low volatility counterions to each molecule of PTH.
structure (smiles),measurement,setting,value
CC[C@H](C)[C@H](NC(=O)[C@H](CCC(=O)O)NC(=O)[C@H](CO)NC(=O)[C@@H](NC(=O)[C@@H](N)CO)C(C)C)C(=O)N[C@@H](CCC(N)=O)C(=O)N[C@@H](CC(C)C)C(=O)N[C@@H](CCSC)C(=O)N[C@@H](Cc1cnc[nH]1)C(=O)N[C@@H](CC(N)=O)C(=O)N[C@@H](CC(C)C)C(=O)NCC(=O)N[C@@H](CCCCN)C(=O)N[C@@H](Cc1cnc[nH]1)C(=O)N[C@@H](CC(C)C)C(=O)N[C@@H](CC(N)=O)C(=O)N[C@@H](CO)C(=O)N[C@@H](CCSC)C(=O)N[C@@H](CCC(=O)O)C(=O)N[C@@H](CCCN=C(N)N)C(=O)N[C@H](C(=O)N[C@@H](CCC(=O)O)C(=O)N[C@@H](Cc1c[nH]c2ccccc12)C(=O)N[C@@H](CC(C)C)C(=O)N[C@@H](CCCN=C(N)N)C(=O)N[C@@H](CCCCN)C(=O)N[C@@H](CCCCN)C(=O)N[C@@H](CC(C)C)C(=O)N[C@@H](CCC(N)=O)C(=O)N[C@@H](CC(=O)O)C(=O)N[C@H](C(=O)N[C@@H](Cc1cnc[nH]1)C(=O)N[C@@H](CC(N)=O)C(=O)N[C@@H](Cc1ccccc1)C(=O)O)C(C)C)C(C)C [hPTH (1-34)],Fraction dose absorbed/delivered (%),"[1]; IV, 22.5 μg, hairless guinea pig",100%
same,dose absorbed/delivered,"[1]; SC, 19.5 μg",8.2 ± 2.9 µg
same,dose absorbed/delivered,"[1]; microprojection array, 40.0 μg",6.6 ± 1.8 µg
same,subjects with measurable PTH plasma levels,"[2]; bioavailability study, subcutaneous delivery (Forteo 40 μg), 20 subjects completed",15 subjects
same,subjects with measurable PTH plasma levels,"[2]; bioavailability study, transdermal delivery 30 μg, 20 subjects completed",20 subjects
same,subjects with measurable PTH plasma levels,"[2]; dose-finding study, subcutaneous injection (Forteo 20 μg), eight with usable data",three
same,subjects with measurable PTH plasma levels,"[2]; dose-finding study, transdermal delivery 30 μg, eight with usable data",eight
same,biological activity as evidenced by urinary cAMP excretion,[3],comparable to that following subcutaneous delivery
same,solubility in water (concentration),[4],> 20%
